Test results as given in the supplement of paper PMC10627819.

Experiments:
Test in all cases: Bliss interaction score (quartile over a dose matrix) (fitness difference); higher = more antagonism (negative = synergy)
S. aureus Newman = test system: S. aureus Newman
Method in brief: (§1)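 At entry into stationary phase, OD595 was recorded and divided by the robust mean of the no-drug wells on that plate, with any value above 1 set to 1. This gives the fitness measure used throughout. Single-drug fitness was inferred from combination data, and the Bliss score, observed minus product-expected fitness, is shown as quartiles across technical, biological and donor/recipient replicates.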

S. aureus DSM 20231 = test system: S. aureus DSM 20231
Method in brief: as §1

B. subtilis 168 = test system: B. subtilis 168
Method in brief: as §1

S. pneumoniae D39V = test system: S. pneumoniae D39V
Method in brief: as §1
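Also: first quartile when negative (synergy) and third quartile when positive (antagonism).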

SMILES	Bliss interaction score (S. aureus Newman)	Bliss interaction score (S. aureus DSM 20231)	Bliss interaction score (B. subtilis 168)	Bliss interaction score (S. pneumoniae D39V)	Bliss interaction score (S. aureus Newman; main component drawn)	Bliss interaction score (S. aureus DSM 20231; main component drawn)	Bliss interaction score (B. subtilis 168; main component drawn)	Bliss interaction score (S. pneumoniae D39V; main component drawn)
CC[C@H]1OC(=O)[C@H](C)[C@@H](O[C@H]2C[C@@](C)(OC)[C@@H](O)[C@H](C)O2)[C@H](C)[C@@H](O[C@@H]2O[C@H](C)C[C@H](N(C)C)[C@H]2O)[C@](C)(O)C[C@@H](C)C(=O)[C@H](C)[C@@H](O)[C@]1(C)O [Erythromycin] + Cn1nnc(-c2ccc(-c3ccc(N4C[C@H](CO)OC4=O)cc3F)cn2)n1 [Tedizolid]	-0.07	-0.0541	-0.0574	0.0787				
CC[C@H]1OC(=O)[C@H](C)[C@@H](O[C@H]2C[C@@](C)(OC)[C@@H](O)[C@H](C)O2)[C@H](C)[C@@H](O[C@@H]2O[C@H](C)C[C@H](N(C)C)[C@H]2O)[C@](C)(O)C[C@@H](C)C(=O)[C@H](C)[C@@H](O)[C@]1(C)O [Erythromycin] + O=C1CN(/N=C/c2ccc([N+](=O)[O-])o2)C(=O)N1 [Nitrofurantoin]	-0.0513	-0.0518	-0.0393	-0.197				
CC[C@H]1OC(=O)[C@H](C)[C@@H](O[C@H]2C[C@@](C)(OC)[C@@H](O)[C@H](C)O2)[C@H](C)[C@@H](O[C@@H]2O[C@H](C)C[C@H](N(C)C)[C@H]2O)[C@](C)(O)C[C@@H](C)C(=O)[C@H](C)[C@@H](O)[C@]1(C)O [Erythromycin] + Oc1cc(Cl)ccc1Oc1ccc(Cl)cc1Cl [Triclosan]	0.0312	-0.0265	-0.0438	-0.0874				
CC(=O)NC[C@H]1CN(c2ccc(N3CCOCC3)c(F)c2)C(=O)O1 [Linezolid] + CC1(C)S[C@@H]2[C@H](NC(=O)Cc3ccccc3)C(=O)N2[C@H]1C(=O)O [PenicillinG]	-0.0481	0.0632	-0.0653	0.0505				
CC(=O)NC[C@H]1CN(c2ccc(N3CCOCC3)c(F)c2)C(=O)O1 [Linezolid] + CC[C@H]1OC(=O)[C@H](C)C(=O)[C@H](C)[C@@H](O[C@@H]2O[C@H](C)C[C@H](N(C)C)[C@H]2O)[C@](C)(OC)C[C@@H](C)C(=O)[C@H](C)[C@H]2N(CCCCn3cnc(-c4cccnc4)c3)C(=O)O[C@]12C [Telithromycin]	-0.074	-0.133	-0.143	-0.0921				
CC(=O)NC[C@H]1CN(c2ccc(N3CCOCC3)c(F)c2)C(=O)O1 [Linezolid] + CN(C)C(=O)C(CCN1CCC(O)(c2ccc(Cl)cc2)CC1)(c1ccccc1)c1ccccc1 [Loperamide]	-0.0501	0.116	0.0436	0.176				
CC(=O)NC[C@H]1CN(c2ccc(N3CCOCC3)c(F)c2)C(=O)O1 [Linezolid] + CN[C@H](CC(C)C)C(=O)N[C@H]1C(=O)N[C@@H](CC(N)=O)C(=O)N[C@H]2C(=O)N[C@H]3C(=O)N[C@H](C(=O)N[C@H](C(=O)O)c4cc(O)cc(O)c4-c4cc3ccc4O)[C@H](O[C@H]3C[C@](C)(N)[C@@H](O)[C@H](C)O3)c3ccc(c(Cl)c3)Oc3cc2cc(c3O[C@@H]2O[C@H](CO)[C@@H](O)[C@H](O)[C@H]2O[C@H]2C[C@](C)(NCc3ccc(-c4ccc(Cl)cc4)cc3)[C@@H](O)[C@H](C)O2)Oc2ccc(cc2Cl)[C@H]1O [Oritavancin]	-0.0463	-0.0323	0.0399	0.0845				
CC(=O)NC[C@H]1CN(c2ccc(N3CCOCC3)c(F)c2)C(=O)O1 [Linezolid] + CO[C@@]12[C@H](COC(N)=O)C3=C(C(=O)C(C)=C(N)C3=O)N1C[C@@H]1N[C@@H]12 [MitomycinC]	0.0823	-0.068	0.0314	-0.0668				
CC(=O)NC[C@H]1CN(c2ccc(N3CCOCC3)c(F)c2)C(=O)O1 [Linezolid] + Oc1cc(Cl)ccc1Oc1ccc(Cl)cc1Cl [Triclosan]	0.026	-0.0777	0.0335	-0.0928				
CO[C@@]12[C@H](COC(N)=O)C3=C(C(=O)C(C)=C(N)C3=O)N1C[C@@H]1N[C@@H]12 [MitomycinC] + C/C(=C\C(=O)OCCCCCCCCC(=O)O)C[C@@H]1OC[C@H](C[C@@H]2O[C@H]2[C@@H](C)[C@H](C)O)[C@@H](O)[C@H]1O [Pseudomonic acid]	-0.0169	-0.011	-0.0185	-0.0895				
CO[C@@]12[C@H](COC(N)=O)C3=C(C(=O)C(C)=C(N)C3=O)N1C[C@@H]1N[C@@H]12 [MitomycinC] + CC1(C)S[C@@H]2[C@H](NC(=O)Cc3ccccc3)C(=O)N2[C@H]1C(=O)O [PenicillinG]	-0.0455	-0.0709	-0.0602	0.103				
CO[C@@]12[C@H](COC(N)=O)C3=C(C(=O)C(C)=C(N)C3=O)N1C[C@@H]1N[C@@H]12 [MitomycinC] + CC1=C\[C@@H](O)CC(=O)Cc2nc(co2)C(=O)N2CCC=C2C(=O)O[C@H](C(C)C)[C@H](C)/C=C/C(=O)NC\C=C\1 [Virginiamycin M1]	-0.059	0.0401	0.0757	0.0805				
CO[C@@]12[C@H](COC(N)=O)C3=C(C(=O)C(C)=C(N)C3=O)N1C[C@@H]1N[C@@H]12 [MitomycinC] + CCC(C)C1C(=O)NC(=C)C(=O)NC(C(=O)NC(CSCC(C(=O)N1)NC(=O)/C(=C/C)/NC(=O)C(C(C)CC)N)C(=O)NC2C(SCC(NC(=O)CNC(=O)C3CCCN3C2=O)C(=O)NC(CCCCN)C(=O)NC4C(SCC(NC(=O)CNC(=O)C(NC(=O)C(NC(=O)C(NC(=O)CNC4=O)C)CC(C)C)CCSC)C(=O)NC(CC(=O)N)C(=O)NC(CCSC)C(=O)NC(CCCCN)C(=O)NC5C(SCC6C(=O)NC(C(=O)NC(CSC(C(C(=O)N6)NC(=O)C(NC5=O)C)C)C(=O)NC(CO)C(=O)NC(C(C)CC)C(=O)NC(CC7=CN=CN7)C(=O)NC(C(C)C)C(=O)NC(=C)C(=O)NC(CCCCN)C(=O)O)CC8=CN=CN8)C)C)C)CC(C)C [Nisin]					-0.0537	-0.242	-0.0279	-0.0423
